# Test results as given in patent publication US12180146B2, “Antihypertensive polyol compound and derivative thereof” (TAO PHARMACEUTICAL (SUZHOU) CO., LTD, priority 2020, dated 2024).
# Structures can show the parent of a compound that is named as a salt.
# Columns and labels:
# [1] = system: spontaneously hypertensive rats (SHR); experiment: Antihypertensive activity test: blood pressure and heart rate of spontaneously hypertensive rats (SHR); format: in vivo, rat; conditions: 200 mg/kg
# Method: Tested Drugs: Compounds of the Invention. The dosage of all compound was uniformly set to 200 mg/kg.
# In the test, changes in the blood pressure before and after the administration were detected, and compared with the basic value, a reduction of SBP ≥20 mmHg after administration was judged as effective antihypertensive effects; and at the same time, changes in the heart rate before and after the administration were detected.
# Heart rate was expressed as mean±standard deviation (x±s). The changes of heart rate before and after the administration were compared by using Two-sample equal variance paired t test, and P<0.05 was regarded as the standard of statistically significant difference.
# [2] = system: hypoxic pulmonary hypertension model rats; experiment: Hypoxic pulmonary hypertension model rats, oral (gavage) treatment for 28 days; format: in vivo, SD rats; conditions: hypoxic PAH rats, 25 mg/kg
# Method: An animal model of pulmonary hypertension in SD rats was established in a hypoxic and low-pressure environment, and compound 1 was administered by gavage at the same time for treatment. The rat pulmonary artery hemodynamics and right heart hypertrophy index RVHI were measured to determine whether compound 1 has effects of improving hypoxic pulmonary hypertension.
# (§1) SD rats (purchased from Shanghai Xipuer-Bikai Experimental Animal Co., Ltd.), male, weighing 180-200 g, were bred in an artificially controlled animal room with each 12 hours of light and darkness at a temperature of 20-25° C. and relative humidity of 50-60%, and allowed ad libitum to food and water. The rats were randomly divided into groups according to the experimental requirements, and kept separately in cages, with 3 to 4 rats per cage. All relevant operations of animal experiments are in compliance with the provisions of “Guidelines for the Management and Use of Laboratory Animals” of China.
# The hypoxic PAH model was established by placing SD male rats in a fully-automatically regulated low-pressure hypoxic chamber (atmospheric pressure of about 50 kPa, oxygen concentration of 10%) for 8 hours a day for 28 days. The rats in the blank control group were kept in a normoxic environment.
# The experimental rats of hypoxic PAH model were divided into 8 groups, namely blank control group, model group, Sidenafil (25 mg/kg) group, compound 1 (10 mg/kg) group, compound 1 (25 mg/kg) group, compound 1 (50 mg/kg) group, compound 1 (100 mg/kg) group, and compound 1 (200 mg/kg) group. The concentration in the parentheses of the group name represents the administration concentration of the compound or drug. In hypoxia-induced PAH experiments, Sidenafil is often used as a positive drug, which can reduce the pulmonary artery pressure in rats and reduce the right ventricular hypertrophy and vascular remodeling. In this experiment, 25 mg/kg of Sidenafil was used as the positive drug. Both the positive drugs Sidenafil and Compound 1 were dissolved in physiological saline and formulated into solutions of different concentrations according to different administration concentrations. The rats were continuously administered for 28 days with an administration volume of 5 ml/kg. Rats in the control and model groups were given the corresponding volume of physiological saline solution via gavage. The specific grouping can be found in Table 5.
# After the administration was completed, the POWERLAB biological information acquisition and treatment system was started, and the right cardiac catheter filled with 0.2% heparin sodium (Beijing Solo Technology Co. Ltd.) in normal saline was connected to the pressure transducer and then zero-calibrationed for use. After 20% urethane (Shanghai Yuanye Biotechnology Co., Ltd.) solution was injected into the abdominal cavity of the rats for anesthesia, the right neck hair was shaved and the right jugular vein was isolated and exposed. […] After the typical right ventricular waveform appeared and stabilized for a while, the waveform was recorded, and then the pressure value was read by Powerlab biological information acquisition and processing system (ADInstruments).
# After the pressure was measured, the catheter was taken out, and the rat was dissected immediately to take out the heart and lung tissues. The right ventricle (RV) and the left ventricle and interventricular septum (LV+S) were separated and weighed, and the right heart hypertrophy index RVHI=RV/(LV+S) was calculated. The lung lobe tissue from the right lower part of the lung was separated, soaked in 4% paraformaldehyde (Sigma) for about 1 week to prepare a paraffin section with a thickness of 3 μm, and then conducted to hematoxylin-eosin staining (Wuhan Guge Biotechnology Co., Ltd.). […]
# [3] = system: monocrotaline-induced pulmonary hypertension model rats (MCT-PAH); experiment: Monocrotaline-induced pulmonary hypertension model rats, oral (gavage) treatment for 21 days; format: in vivo, SD rats; conditions: 1 mg/kg
# Text: Monocrotaline (MCT) was subcutaneously injected to establish an animal model of pulmonary hypertension in SD rats. At the same time, compound 1 was given by gavage for treatment. The pulmonary artery hemodynamics and right heart hypertrophy index RVHI of the rates were detected to determine whether the oral administration of compound 1 has effects of improving Monocrotaline induces pulmonary hypertension.
# as §1
# During the experiment, SD rats were randomly divided into 4 groups: blank control group, pulmonary hypertension model group, Selexipag (1 mg/kg) treatment group and compound 1 (100 mg/kg) group with 6 rats in each group, and the concentration in brackets represents the administration concentration of the compound, in which Selexipag is a new oral long-acting prostacyclin receptor agonist discovered and synthesized by Japan New Drug Co., Ltd. On the first day of the experiment, normal saline was injected subcutaneously into the back of neck of rats in the blank control group, and monocrotaline (Chengdu Purifa Biotechnology Co., Ltd.) solution was injected in the rats in other groups at a dosage of 60 mg/kg. Both the positive drug, Selexipag and Compound 1 were administered by gavage. Selexipag and […] were dissolved in 0.5% CMC-Na solution. The rats were continuously administered for 21 days with a volume of […]. The rats in the control and model groups were given the corresponding volume of CMC-Na solution by gavage. Specific groupings can be found in Table 7.
# After the administration, the pulmonary vascular hemodynamics and RVHI was determined according to the same experiment method as that in Example 1.
# [4] = after administration (6 h M ± SD), n = 8
# [5] = before administration, M ± SD, n = 8
compound,measurement,setting,value
CCc1cccc(C(O)COC(=O)[C@@H](C)N)c1 (stereo partly drawn) [Compound 22],"SBP Difference before and after administration, 1 h",[1]; 1 h,11 mmHg
same,"SHR blood pressure (SBP), time after administration 1 h","[1]; 1 h, n = 8",187 ± 6.39 mmHg
same,"SBP Difference before and after administration, 2 h",[1]; 2 h,14 mmHg
same,"SHR blood pressure (SBP), time after administration 2 h","[1]; 2 h, n = 8",184 ± 4.69 mmHg
same,"SBP Difference before and after administration, 3 h",[1]; 3 h,26 mmHg
same,"SHR blood pressure (SBP), time after administration 3 h","[1]; 3 h, n = 8",171 ± 12.14 mmHg
same,"SBP Difference before and after administration, 4 h",[1]; 4 h,25 mmHg
same,"SHR blood pressure (SBP), time after administration 4 h","[1]; 4 h, n = 8",173 ± 13.7 mmHg
same,"SBP Difference before and after administration, 5 h",[1]; 5 h,24 mmHg
same,"SHR blood pressure (SBP), time after administration 5 h","[1]; 5 h, n = 8",174 ± 15.9 mmHg
same,"SBP Difference before and after administration, 6 h",[1]; 6 h,20 mmHg
same,"SHR blood pressure (SBP), time after administration 6 h","[1]; 6 h, n = 8",178 ± 8.78 mmHg
CCc1cccc(C(CO)OC(=O)CN)c1 (stereo not drawn) [Compound 23],"SBP Difference before and after administration, 1 h",[1]; 1 h,10 mmHg
same,"SHR blood pressure (SBP), time after administration 1 h","[1]; 1 h, n = 8",186 ± 6.39 mmHg
same,"SBP Difference before and after administration, 2 h",[1]; 2 h,9 mmHg
same,"SHR blood pressure (SBP), time after administration 2 h","[1]; 2 h, n = 8",187 ± 4.66 mmHg
same,"SBP Difference before and after administration, 3 h",[1]; 3 h,15 mmHg
same,"SHR blood pressure (SBP), time after administration 3 h","[1]; 3 h, n = 8",181 ± 9.15 mmHg
same,"SBP Difference before and after administration, 4 h",[1]; 4 h,13 mmHg
same,"SHR blood pressure (SBP), time after administration 4 h","[1]; 4 h, n = 8",183 ± 13.7 mmHg
same,"SBP Difference before and after administration, 5 h",[1]; 5 h,18 mmHg
same,"SHR blood pressure (SBP), time after administration 5 h","[1]; 5 h, n = 8",178 ± 15.9 mmHg
same,"SBP Difference before and after administration, 6 h",[1]; 6 h,18 mmHg
same,"SHR blood pressure (SBP), time after administration 6 h","[1]; 6 h, n = 8",178 ± 8.78 mmHg
COc1cc(C(O)CO)ccc1O (stereo not drawn) [Compound 25],"SBP Difference before and after administration, 1 h",[1]; 1 h,8 mmHg
same,"SHR blood pressure (SBP), time after administration 1 h","[1]; 1 h, n = 8",191 ± 6.64 mmHg
same,"SBP Difference before and after administration, 2 h",[1]; 2 h,10 mmHg
same,"SHR blood pressure (SBP), time after administration 2 h","[1]; 2 h, n = 8",189 ± 7.77 mmHg
same,"SBP Difference before and after administration, 3 h",[1]; 3 h,11 mmHg
same,"SHR blood pressure (SBP), time after administration 3 h","[1]; 3 h, n = 8",186 ± 8.18 mmHg
same,"SBP Difference before and after administration, 4 h",[1]; 4 h,15 mmHg
same,"SHR blood pressure (SBP), time after administration 4 h","[1]; 4 h, n = 8",184 ± 4.56 mmHg
same,"SBP Difference before and after administration, 5 h",[1]; 5 h,12 mmHg
same,"SHR blood pressure (SBP), time after administration 5 h","[1]; 5 h, n = 8",187 ± 14.2 mmHg
same,"SBP Difference before and after administration, 6 h",[1]; 6 h,11 mmHg
same,"SHR blood pressure (SBP), time after administration 6 h","[1]; 6 h, n = 8",188 ± 5.55 mmHg
"COCCc1ccc(OCC(O)CNC(C)C)cc1 (stereo not drawn) [Metoprolol Hydrochloride, reference compound]",effect on heart rate while lowering blood pressure,[1],significantly slow down the heart rate
same,time after administration of lowest value of blood pressure,[1],3 h
same,"SHR heart rate, time after administration 0 h","[1]; 0 h, N = 8",328 ± 24.5 beat/min
same,"Heart rate Difference before and after administration, 1 h",[1]; 1 h,−44 beat/min
same,"SBP Difference before and after administration, 1 h",[1]; 1 h,20 mmHg
same,"SHR heart rate, time after administration 1 h","[1]; 1 h, N = 8",283 ± 24.4 beat/min
same,"SHR blood pressure (SBP), time after administration 1 h","[1]; 1 h, n = 8",166 ± 6.39 mmHg
same,"Heart rate Difference before and after administration, 2 h",[1]; 2 h,−45 beat/min
same,"SBP Difference before and after administration, 2 h",[1]; 2 h,22 mmHg
same,"SHR heart rate, time after administration 2 h","[1]; 2 h, N = 8",283 ± 23.1 beat/min
same,"SHR blood pressure (SBP), time after administration 2 h","[1]; 2 h, n = 8",164 ± 4.50 mmHg
same,"Heart rate Difference before and after administration, 3 h",[1]; 3 h,−49 beat/min
same,"SBP Difference before and after administration, 3 h",[1]; 3 h,25 mmHg
same,"SHR heart rate, time after administration 3 h","[1]; 3 h, N = 8",279 ± 22.3 beat/min
same,"SHR blood pressure (SBP), time after administration 3 h","[1]; 3 h, n = 8",161 ± 9.15 mmHg
same,"Heart rate Difference before and after administration, 4 h",[1]; 4 h,−48 beat/min
same,"SBP Difference before and after administration, 4 h",[1]; 4 h,24 mmHg
same,"SHR heart rate, time after administration 4 h","[1]; 4 h, N = 8",280 ± 23.0 beat/min
same,"SHR blood pressure (SBP), time after administration 4 h","[1]; 4 h, n = 8",163 ± 13.7 mmHg
same,"Heart rate Difference before and after administration, 5 h",[1]; 5 h,−43 beat/min
same,"SBP Difference before and after administration, 5 h",[1]; 5 h,23 mmHg
same,"SHR heart rate, time after administration 5 h","[1]; 5 h, N = 8",285 ± 24.0 beat/min
same,"SHR blood pressure (SBP), time after administration 5 h","[1]; 5 h, n = 8",164 ± 15.9 mmHg
same,"Heart rate Difference before and after administration, 6 h",[1]; 6 h,−40 beat/min
same,"SBP Difference before and after administration, 6 h",[1]; 6 h,18 mmHg
same,"SHR heart rate, time after administration 6 h","[1]; 6 h, N = 8",288 ± 28.5 beat/min
same,"SHR blood pressure (SBP), time after administration 6 h","[1]; 6 h, n = 8",168 ± 8.78 mmHg
same,average heart rate slowed by,[1]; 6 hours after administration,46 beats/min
same,"Blood pressure (SBP, mmHg) After administration",[1]; [4],164 ± 7.85 mmHg
same,Heart rate (beat/min) After administration,[1]; [4],282 ± 21.3 beat/min
same,Heart rate Difference (beat/min),[1]; after administration minus baseline (6 h),−46 beat/min
same,blood pressure reduction after administration,[1]; at most recorded time points,more than 20 mmHg
same,Blood pressure Difference mmHg,[1]; baseline minus after administration (6 h),23 mmHg
same,"Blood pressure (SBP, mmHg) Baseline",[1]; [5],186 ± 7.87 mmHg
same,Heart rate (beat/min) Baseline,[1]; [5],328 ± 24.5 beat/min
"CCCc1nn(C)c2c(=O)[nH]c(-c3cc(S(=O)(=O)N4CCN(C)CC4)ccc3OCC)nc12 [Sildenafil, reference compound]","value of RV/(LV+S), remodeling of the right ventricle",[2]; gavage,effectively reduce
same,2 × MT/ED,[2]; po,0.238 ± 0.018
same,RVHI,[2]; po,0.240 ± 0.028
same,RVSP,[2]; po,50.12 ± 2.96 mmHg
same,mPAP,[2]; po,14.34 ± 2.48 mmHg
"CC(C)N(CCCCOCC(=O)NS(C)(=O)=O)c1cnc(-c2ccccc2)c(-c2ccccc2)n1 [selexipag, reference compound]",pulmonary arteriole hypertrophy vs. Model,[3],significantly reduced
same,2 × MT/ED,[3]; twice a day,0.30 ± 0.086
same,RVHI,[3]; twice a day,0.27±0.026
same,RVSP,[3]; twice a day,35.67 ± 2.89 mmHg
same,mPAP,[3]; twice a day,8.78 ± 1.98 mmHg
